Results reported in US7135193B2, “Liposome compositions of porphyrin photosensitizers” (QLT, Inc., priority 1992, dated 2006).

Assay: Chemical stability of liposomal BPD-MA: potency, degradation products and pH of the reconstituted solution on storage
Type: physicochemical
Conditions: cryodesiccated liposome formulation
Protocol: The chemical stability of the constituted dosage form was followed by monitoring the potency, degradation products and pH of the reconstituted solution. The potency of the reconstituted parenteral dosage form was assessed by chromatography with potency calculated on as is basis.

projected shelf life: at least two years
period over which potency was maintained (room temperature): at least nine months
Substance: benzoporphyrin derivative monoacid [BPD-MA]
